# Columns and labels:
# D4 = molecular target: T1, D4 (Homo sapiens, UniProt P21917); test: PDSP radioligand competition binding; details: radioligand [^3H]N-methyl Spiperone; read-out: In Vitro Affinity
# T1 construct: expressed in transfected cells
# T1 sequence (P21917 1-419): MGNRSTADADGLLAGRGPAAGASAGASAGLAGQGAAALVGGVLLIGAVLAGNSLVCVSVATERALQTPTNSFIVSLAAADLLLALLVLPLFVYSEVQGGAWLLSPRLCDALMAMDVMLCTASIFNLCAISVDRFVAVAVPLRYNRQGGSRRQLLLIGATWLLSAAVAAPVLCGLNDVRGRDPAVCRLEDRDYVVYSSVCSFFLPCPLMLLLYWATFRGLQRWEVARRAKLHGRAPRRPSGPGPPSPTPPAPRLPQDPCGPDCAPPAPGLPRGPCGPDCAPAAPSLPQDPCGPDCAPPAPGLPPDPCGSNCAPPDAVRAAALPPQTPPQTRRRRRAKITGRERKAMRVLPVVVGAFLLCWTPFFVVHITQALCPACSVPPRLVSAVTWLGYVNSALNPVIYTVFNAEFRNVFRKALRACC
# dopamine D2 receptor = molecular target: T2, dopamine D2 receptor (Homo sapiens, UniProt P14416); assay type: cell-based
# T2 construct: expressed in transfected cells; host or cells: HEKT cells (ATCC)
# T2 sequence (P14416 whole entry, species assumed): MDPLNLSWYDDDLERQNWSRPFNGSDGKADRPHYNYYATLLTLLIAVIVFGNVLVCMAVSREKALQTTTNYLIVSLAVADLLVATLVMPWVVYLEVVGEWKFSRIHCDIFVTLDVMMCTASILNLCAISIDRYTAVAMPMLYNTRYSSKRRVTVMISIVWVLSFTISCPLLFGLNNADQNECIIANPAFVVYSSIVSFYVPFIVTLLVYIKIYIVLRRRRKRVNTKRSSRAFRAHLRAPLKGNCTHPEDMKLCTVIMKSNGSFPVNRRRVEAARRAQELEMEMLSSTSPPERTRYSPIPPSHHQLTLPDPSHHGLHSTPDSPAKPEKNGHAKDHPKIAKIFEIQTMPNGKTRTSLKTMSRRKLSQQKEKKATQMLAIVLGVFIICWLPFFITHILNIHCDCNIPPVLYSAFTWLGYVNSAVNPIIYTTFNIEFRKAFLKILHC
# D5 = D5 (Homo sapiens, UniProt P21918); test: PDSP receptor functional assay; assay type: cell-based
# D5, sequence (P21918 whole entry, looked up): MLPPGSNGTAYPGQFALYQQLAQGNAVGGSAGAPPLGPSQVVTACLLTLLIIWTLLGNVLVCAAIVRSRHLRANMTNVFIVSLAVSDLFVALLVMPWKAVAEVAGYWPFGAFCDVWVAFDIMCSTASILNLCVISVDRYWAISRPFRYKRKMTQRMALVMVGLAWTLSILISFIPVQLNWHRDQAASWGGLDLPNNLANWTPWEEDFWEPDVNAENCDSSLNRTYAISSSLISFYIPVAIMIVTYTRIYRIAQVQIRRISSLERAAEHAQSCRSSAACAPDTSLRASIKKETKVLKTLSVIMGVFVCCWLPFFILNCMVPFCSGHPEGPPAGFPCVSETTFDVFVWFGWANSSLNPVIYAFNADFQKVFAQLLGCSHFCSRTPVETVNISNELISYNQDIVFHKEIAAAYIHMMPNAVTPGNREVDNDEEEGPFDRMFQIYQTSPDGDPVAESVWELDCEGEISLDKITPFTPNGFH
# α2A = α2A (Homo sapiens, UniProt P08913); test: PDSP radioligand competition binding; details: radioligand [^3H]Rauwolscine; read-out: In vitro Affinity
# α2A, sequence (P08913 whole entry): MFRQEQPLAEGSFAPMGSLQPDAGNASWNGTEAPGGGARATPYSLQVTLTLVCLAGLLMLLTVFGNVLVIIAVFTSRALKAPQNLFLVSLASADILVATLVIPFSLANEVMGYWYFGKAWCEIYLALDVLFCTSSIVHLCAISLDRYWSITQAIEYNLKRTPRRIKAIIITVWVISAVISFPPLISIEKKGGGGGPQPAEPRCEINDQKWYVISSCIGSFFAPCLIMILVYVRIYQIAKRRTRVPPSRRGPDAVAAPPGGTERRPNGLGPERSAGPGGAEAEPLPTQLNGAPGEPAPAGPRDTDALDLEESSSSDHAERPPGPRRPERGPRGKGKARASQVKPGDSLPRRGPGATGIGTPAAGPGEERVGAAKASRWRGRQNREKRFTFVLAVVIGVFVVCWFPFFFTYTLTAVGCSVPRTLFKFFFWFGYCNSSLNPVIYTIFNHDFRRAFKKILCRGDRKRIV
# 5-HT2C = molecular target: T3, 5-HT2C (Homo sapiens, UniProt P28335); test: PDSP radioligand competition binding; details: radioligand [^3H]Mesulergine; read-out: In Vitro Affinity
# T3 construct: expressed in transfected cells
# T3 sequence (P28335 33-458): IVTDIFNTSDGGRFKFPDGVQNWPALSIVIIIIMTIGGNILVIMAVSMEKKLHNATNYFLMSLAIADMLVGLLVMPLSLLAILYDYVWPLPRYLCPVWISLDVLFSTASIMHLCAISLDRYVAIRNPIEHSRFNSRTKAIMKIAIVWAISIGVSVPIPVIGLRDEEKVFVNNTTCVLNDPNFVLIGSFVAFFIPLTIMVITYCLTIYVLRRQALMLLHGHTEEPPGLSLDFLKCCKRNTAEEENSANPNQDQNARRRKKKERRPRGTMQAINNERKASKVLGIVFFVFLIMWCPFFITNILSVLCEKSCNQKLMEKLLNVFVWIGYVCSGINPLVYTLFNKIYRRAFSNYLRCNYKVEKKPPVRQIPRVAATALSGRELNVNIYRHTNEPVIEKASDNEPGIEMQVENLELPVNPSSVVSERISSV
# male B6129 hybrid mice = test: Clozapine drug discrimination (substitution); assay type: in vivo
# Protocol: Adult male B6129 hybrid mice (n = 12) were trained to respond under a FR10 schedule and were reinforced by presentation of sweetened milk as described previously. The drug and vehicle lever positions were counterbalanced between groups to control for olfactory cues. All injections were given subcutaneously with a pre-session injection time of 30 minutes. Training occurred on a double alternation injection schedule with two days of VEH followed by two days of CLZ and repeated (VEH, VEH, CLZ, CLZ, VEH, VEH etc.). In order for a mouse to pass a training day it had to meet three criteria: (1) complete the first fixed ratio (FR) on the condition-appropriate lever, (2) at least 80% of the total responses were made on the condition-appropriate lever, and (3) at least 10 responses per minute were made during the session. Drug testing was conducted approximately two times per week with at least two training days in between. To be eligible for testing, mice were required to pass both a drug and vehicle training day consecutively. […] Responses on both levers were reinforced.
# A p<0.05 was considered significant.
# V1A = V1A (Homo sapiens, UniProt P37288); test: PDSP radioligand competition binding; details: radioligand [^3H]Vasopressin; read-out: In vitro Affinity
# V1A, sequence (P37288 whole entry): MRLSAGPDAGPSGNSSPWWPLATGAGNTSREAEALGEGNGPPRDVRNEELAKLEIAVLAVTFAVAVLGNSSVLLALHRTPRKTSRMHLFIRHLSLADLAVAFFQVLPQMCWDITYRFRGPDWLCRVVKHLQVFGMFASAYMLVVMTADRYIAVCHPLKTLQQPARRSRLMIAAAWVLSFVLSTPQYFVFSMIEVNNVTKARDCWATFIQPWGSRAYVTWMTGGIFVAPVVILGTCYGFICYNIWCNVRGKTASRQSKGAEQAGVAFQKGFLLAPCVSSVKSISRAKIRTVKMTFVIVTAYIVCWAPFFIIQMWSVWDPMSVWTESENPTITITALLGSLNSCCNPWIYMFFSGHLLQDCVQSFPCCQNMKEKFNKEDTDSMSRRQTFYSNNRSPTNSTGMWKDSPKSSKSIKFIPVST
# [1] = Dynamic light scattering to test for colloidal aggregation; assay type: physicochemical
# Protocol: Measurements were made at room temperature using a DynaPro MS/X (Wyatt Technology) with a 55 mW laser at 826.6 nm. The laser power was 100%, and the detector angle was 90° with samples run in duplicate.
# 5-HT2A = molecular target: T4, 5-HT2A (Homo sapiens, UniProt P28223); test: PDSP radioligand competition binding; details: radioligand [^3H]Ketanserin; read-out: In Vitro Affinity
# T4 construct: expressed in transfected cells
# T4 sequence (P28223 whole entry, looked up): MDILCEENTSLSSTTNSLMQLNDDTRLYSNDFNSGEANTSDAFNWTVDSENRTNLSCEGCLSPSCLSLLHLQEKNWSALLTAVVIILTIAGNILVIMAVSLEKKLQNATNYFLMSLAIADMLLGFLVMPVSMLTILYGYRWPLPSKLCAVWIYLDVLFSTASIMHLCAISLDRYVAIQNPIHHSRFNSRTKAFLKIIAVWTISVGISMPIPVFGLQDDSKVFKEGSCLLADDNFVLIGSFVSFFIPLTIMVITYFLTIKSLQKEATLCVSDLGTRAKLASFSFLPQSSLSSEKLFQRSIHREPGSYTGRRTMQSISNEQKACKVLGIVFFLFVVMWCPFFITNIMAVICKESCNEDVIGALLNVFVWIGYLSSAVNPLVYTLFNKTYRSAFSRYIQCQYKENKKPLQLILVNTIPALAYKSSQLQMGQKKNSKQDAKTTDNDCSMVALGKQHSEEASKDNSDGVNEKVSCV
smiles,measurement,setting,value
COc1cc2c3c(c1OC)-c1ccccc1C[C@H]3N(C)CC2 [nuciferine],Ki,D4,1390 nM
same,Function Type,dopamine D2 receptor,Partial agonist
same,Emax,"dopamine D2 receptor; D2 partial agonist activity, Fig 4A",67 % of dopamine
same,EC50,D5,2600 nM
same,Function Type,D5,Partial agonist
same,Emax,"D5; partial agonist efficacy, read-out: maximal response",50%
same,Ki,α2A,1150 nM
same,Ki,5-HT2C,60.5 nM
same,drug lever responding,"male B6129 hybrid mice; 10.0 mg/kg s.c., animals trained on 1.25 mg/kg clozapine",80.63%
same,ED50,"male B6129 hybrid mice; Mus musculus, sc, 95% CI 3.09–9.48 mg/kg",5.42 mg/kg
same,substitution for clozapine's discriminative cue,male B6129 hybrid mice; lower doses 0.1 mg/kg–3.0 mg/kg,failed to produce substitution
same,Ki,V1A,10000 nM
same,light scattering above background,"[1]; <= 10 μM, aqueous buffer",did not scatter light above background
same,colloidal aggregate formation,[1]; concentrations up to 10 μM,does not form aggregates
same,Ki,5-HT2A,312 nM

# Reference: publication PMC4786259 (PLoS ONE, 2016)
